Data taken from ChEMBL document CHEMBL1781984 (J Nat Prod, 2011).

Key:
[1] = Aqueous solubility of the compound in distilled water at 23 degC; assay type: physicochemical
[2] = tested on: P388; assay: Anticancer activity against mouse P388 cells; assay type: functional
[3] = tested on: DU-145; assay: Anticancer activity against human DU145 cells; assay type: functional
[4] = tested on: BXPC-3; assay: Anticancer activity against human BxPC3 cells; assay type: functional
[5] = tested on: MCF7; assay: Anticancer activity against human MCF7 cells; assay type: functional
[6] = tested on: SF-268; assay: Anticancer activity against human SF268 cells; assay type: functional
[7] = tested on: KM-20L2; assay: Anticancer activity against human KM20L2 cells; assay type: functional
[8] = tested on: NCI-H460; assay: Anticancer activity against human NCI-H460 cells; assay type: functional

SMILES | solubility [1] [mg/mL] | GI50 [2] [nM] | GI50 [3] [nM] | GI50 [4] [nM] | GI50 [5] [nM] | GI50 [6] [nM] | GI50 [7] [nM] | GI50 [8] [nM]
C1COCCN1.CC[C@H](C)[C@@H]([C@@H](CC(=O)N1CCC[C@H]1[C@H](OC)[C@@H](C)C(=O)NCCc1ccc(OP(=O)(O)O)cc1)OC)N(C)C(=O)[C@@H](NC(=O)[C@H](C(C)C)N(C)C)C(C)C [MORPHOLINE AURISTATIN TP] | > 72 |  |  |  |  |  |  | 
CC[C@H](C)[C@@H]([C@@H](CC(=O)N1CCC[C@H]1[C@H](OC)[C@@H](C)C(=O)NCCc1ccc(OP(=O)(O)O)cc1)OC)N(C)C(=O)[C@@H](NC(=O)[C@H](C(C)C)N(C)C)C(C)C [POTASSIUM AURISTATIN TP] |  | 8.7 |  |  |  |  |  | 
CC[C@H](C)[C@@H]([C@@H](CC(=O)N1CCC[C@H]1[C@H](OC)[C@@H](C)C(=O)Nc1ccc2ccccc2n1)OC)N(C)C(=O)[C@@H](NC(=O)[C@H](C(C)C)N(C)C)C(C)C |  |  | 31.8 | 40.1 | 6.35 | 40.1 | 10.6 | 22.1
C=C[C@H]1CN2CCC1C[C@H]2[C@H](O)c1ccnc2ccc(OC)cc12.CC[C@H](C)[C@@H]([C@@H](CC(=O)N1CCC[C@H]1[C@H](OC)[C@@H](C)C(=O)NCCc1ccc(OP(=O)(O)O)cc1)OC)N(C)C(=O)[C@@H](NC(=O)[C@H](C(C)C)N(C)C)C(C)C [Quinine Auristatin TP] | < 5 |  |  |  |  |  |  | 
CC[C@H](C)[C@@H]([C@@H](CC(=O)N1CCC[C@H]1[C@H](OC)[C@@H](C)C(=O)Nc1ccc2ncccc2c1)OC)N(C)C(=O)[C@@H](NC(=O)[C@H](C(C)C)N(C)C)C(C)C |  |  | 0.41 | 0.43 | 0.19 | 0.22 | 0.35 | 0.5
CC[C@H](C)[C@@H]([C@@H](CC(=O)N1CCC[C@H]1[C@H](OC)[C@@H](C)C(=O)NCCc1ccc(OP(=O)(O)O)cc1)OC)N(C)C(=O)[C@@H](NC(=O)[C@H](C(C)C)N(C)C)C(C)C [SODIUM AURISTATIN TP] |  | < 1.2 | 0.64 | 54.6 | 0.81 | 1.48 | 0.72 | 1.05
